Target: T1, human vasopressin V1a receptor subtype (Homo sapiens, UniProt P37288)
T1 construct: host or cells: CHO cells; pZeoSV vector for the Thibonnier line
Test: Vasopressin binding in CHO cell membranes expressing human vasopressin V1a subtype receptors ([3H]Manning ligand radioligand binding)
Conditions: @ 100 nM
Text: Vasopressin Binding in Chinese Hamster Ovary Cell Membranes Expressing Human Vasopressin V1a Subtype Receptors
Chinese hamster ovary cells (CHO cells) stably transfected with the human vasopressin V1a subtype receptors were either obtained from BioSignal Inc., 1744 rue Williams, Montreal, Quebec, Canada or obtained from M. Thibonnier, Case Western Reserve University School of Medicine, Cleveland, Ohio.
A. Passaging and Amplification of Cells
CHO cells transfected with the human vasopressin V1a subtype receptors obtained from M. Thibonnier (pZeoSV vector) are allowed to grow to confluency (approx. >90%) in T-150 flasks under sterile conditions, in a cell culture medium of F-12 Nutrient Mixture (HAM) with L-glutamine (Gibco Cat. #11765-054) containing 15 mM HEPES (Gibco Cat. #15630-080), 1% antibiotic/antimycotic (add 5 mL 100×, Gibco Cat. #15240-062 per 500 mL F-12), 250 μg/mL Zeocin (add 1.25 mL of 100 mg/mL Invitrogen R-250-01 per 500 mL F-12) and 10% Fetal Bovine Serum (Qualified, heat inactivated, Gibco Cat. #16140-063). The medium is removed by aspiration and the cells are washed with 10 mL of Hank's Balanced Salt solution (Gibco Cat. #14175-095). The salt solution is removed by aspiration and the cells are trypsinized with 5 mL of trypsin-EDTA (0.05% trypsin, 0.53 mM EDTA-4Na, Gibco Cat. #25300-070) for 1 min. The trypsin is removed by aspiration and the cells dislodged by tapping. Cell Culture medium (e.g. 30 mL for 1:30 split) is immediately added and mixed well to inactivate trypsin. 1 mL of detached cells is added to new culture flasks containing fresh cell culture medium (e.g., into 25 mL per T-150 flask), and mixed gently. The cells are incubated at 37° C. in 5% CO2. The medium is changed at 3 to 4 days interval (or as appropriate). The cells grow to confluency (approx. >75%-95%) within 7-8 days. All steps are done under sterile conditions.
The cells are washed twice gently with Hank's Balanced Salt solution (e.g,. use 10 mL per T-150 flask). The excess is removed and the cells are bathed for 15-30 min. in an enzyme-free Cell Dissociation Buffer (e.g. use 8 mL Hank's Based, Gibco Cat. #13150-016 per T-150 flask) until the cells are loosened. The contents are transferred to centrifuge tubes (50 mL) kept in an ice bath. All subsequent steps are done at 4° C. The tubes are centrifuged at 300×g for 15 min (1380 rpm on SORVAL, Model RT6000D, using the rotor for 50 mL tubes). The supernatant is discarded and the cells suspended in homogenizing buffer(10 mM Tris-HCl containing 0.25 M sucrose and 1 mM EDTA, pH 7.4) ensuring that the volume of the buffer is about ten times the volume of the cell pellet. The cells are pooled into a centrifuge tube (50 mL) and homogenized with Polytron at setting 6 for 10 sec. The homogenate is transferred into a Potter-Elvjehm homogenizer and homogenized with 3 strokes. The homogenate is centrifuged at 1500×g for 10 min at 4° C. (3100 rpm using SORVAL, model RT6000D, using the rotor for 50 mL tubes). The pellet is discarded. The supernatant is centrifuged at 100,000×g for 60 min. at 4° C. (Beckman L8-80M ultracentrifuge; spin at 37,500 rpm with rotor type 70 Ti for 50 mL tubes; 38,000 rpm with type 80Ti for 15 mL tubes; or 35,800 rpm with rotor type 45Ti). The supernantant is discarded and the pellet suspended in 3 to 4 mL of Tris buffer (50 mM TRIS—HCl, pH 7.4). The protein content is estimated by the Bradford or Lowry method. The volume of the membrane suspension is adjusted with the membrane buffer (50 mM Tris-HCl containing 0.1% BSA and 0.1 mM PMSF) to give 3.0 mg/mL (or as appropriate) of protein. The membranes are aliquoted and stored at −70° C.
C. Radioligand Binding Assay […]

T1 sequence (P37288 whole entry): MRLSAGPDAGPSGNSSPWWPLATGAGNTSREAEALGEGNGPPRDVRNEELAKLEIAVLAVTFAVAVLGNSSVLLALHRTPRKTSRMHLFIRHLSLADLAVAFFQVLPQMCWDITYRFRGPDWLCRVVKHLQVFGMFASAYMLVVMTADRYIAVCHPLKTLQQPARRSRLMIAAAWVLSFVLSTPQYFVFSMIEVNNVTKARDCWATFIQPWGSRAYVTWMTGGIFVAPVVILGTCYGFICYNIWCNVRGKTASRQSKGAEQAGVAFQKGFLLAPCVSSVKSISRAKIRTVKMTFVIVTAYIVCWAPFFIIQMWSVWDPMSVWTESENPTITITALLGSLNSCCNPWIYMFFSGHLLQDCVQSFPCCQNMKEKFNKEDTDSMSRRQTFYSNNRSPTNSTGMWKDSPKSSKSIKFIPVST

SMILES	inhibition at 0.1 µM [%]
Cc1cc(C(=O)N2Cc3ccc(C(=O)NC(CO)(CO)CO)n3Cc3ccccc32)ccc1-c1ccccc1C(F)(F)F [Example 3, 10-[(2-Methyl-2′-trifluoromethyl-[1,1′-biphenyl]-4-yl)carbonyl]-10,11-dihydro-5H-pyrrolo[2,1-c][1,4]benzodiazepine-3-carboxylic acid (2-hydroxy-1,1-bis-hydroxymethyl-ethyl)-amide]	7
COc1cc2c(cc1OC)N(C(=O)c1ccc(-c3ccccc3C(F)(F)F)c(C)c1)Cc1ccc(C(=O)N(CCO)CCO)n1C2 [Example 19, N,N-Bis(2-Hydroxyethyl)-7,8-dimethoxy-10-{[2-methyl-2′-trifluoromethyl-[1,1′-biphenyl]-4-yl]carbonyl}-10,11-dihydro-5H-pyrrolo[2,1-c][1,4]benzodiazepine-3-carboxamide]	1
COc1cc2c(cc1OC)N(C(=O)c1ccc(-c3ccccc3C(F)(F)F)c(C)c1)Cc1ccc(C(=O)N(C)CC(O)CO)n1C2 (stereo not drawn) [Example 18, N-(2,3-Dihydroxypropyl)-7,8-dimethoxy-N-methyl-10-{[2-methyl-2′-trifluoromethyl-[1,1′-biphenyl]-4-yl]carbonyl}-10,11-dihydro-5H-pyrrolo[2,1-c][1,4]benzodiazepine-3-carboxamide]	0

The next lines start with the values.

inhibition at 0.1 µM [%]	SMILES
49	COc1cc(C(=O)N2Cc3ccc(C(=O)N4CCN(CCO)CC4)n3Cc3ccccc32)ccc1-c1ccccc1C [Example 42, [4-(2-Hydroxyethyl)-1-piperazinyl]{10-[(2-methoxy-2′-methyl[1,1′-biphenyl]-4yl)carbonyl]-10,11-dihydro-5H-pyrrolo[2,1-c][1,4]benzodiazepin-3-yl}methanone]
53	Cc1ccccc1-c1ccc(C(=O)N2Cc3ccc(C(=O)N4CCN(CCO)CC4)n3Cc3ccccc32)cc1C [Example 46, {10-[(2,2′-Dimethyl[1,1′-biphenyl]-4-yl)carbonyl]-10,11-dihydro-5H-pyrrolo[2,1-c][1,4]benzodiazepin-3-yl}[4-(2-hydroxyethyl)-1-piperazinyl]methanone]
1	COc1cccc(-c2cc(OC)c(C(=O)N3Cc4ccc(C(=O)N5CCN(CCO)CC5)n4Cc4ccccc43)cc2Cl)c1 [Example 49, {10-[(6-Chloro-3,3′-dimethoxy[1,1′-biphenyl]-4-yl)carbonyl]-10,11-dihydro-5H-pyrrolo[2,1-c][1,4]benzodiazepin-3-yl}[4-(2-hydroxyethyl)-1-piperazinyl]methanone]
1	COc1ccccc1-c1ccc(C(=O)N2Cc3ccc(C(=O)N4CCN(CCO)CC4)n3Cc3ccccc32)cc1OC [Example 43, {10-[(2,2′-Dimethoxy[1,1′-biphenyl]-4-yl)carbonyl]-10,11-dihydro-5H-pyrrolo[2,1-c][1,4]benzodiazepin-3-yl}[4-(2-hydroxyethyl)-1-piperazinyl]methanone]
12	COc1cc(C(=O)N2Cc3ccc(C(=O)N4CCN(CCO)CC4)n3Cc3ccccc32)ccc1-c1cccc2ccccc12 [Example 41, [4-(2-Hydroxyethyl)-1-piperazinyl]{10-[3-methoxy-4-(1-naphthyl)benzoyl]-10,11-dihydro-5H-pyrrolo[2,1-c][1,4]benzodiazepin-3-yl}methanone]
13	COc1ccccc1-c1ccc(C(=O)N2Cc3ccc(C(=O)N4CCN(CCO)CC4)n3Cc3ccccc32)cc1C [Example 40, [4-(2-Hydroxyethyl)-1-piperazinyl]{10-[(2′-methoxy-2-methyl[1,1′-biphenyl]-4yl)carbonyl]-10,11-dihydro-5H-pyrrolo[2,1-c][1,4]benzodiazepin-3-yl}methanone]
7	COc1cc(C(=O)N2Cc3ccc(C(=O)N4CCN(CCO)CC4)n3Cc3ccccc32)ccc1-n1c(C)ccc1C [Example 52, {10-[4-(2,5-Dimethyl-1H-pyrrol-1-yl)-3-methoxybenzoyl]-10,11-dihydro-5H-pyrrolo[2,1-c][1,4]benzodiazepin-3-yl}[4-(2-hydroxyethyl)-1-piperazinyl]methanone]

Same assay, conditions: value printed in parentheses

IC50 [nM]	SMILES
376	COc1cc(C(=O)N2Cc3ccc(C(=O)N(C)CC(O)CO)n3Cc3ccccc32)ccc1-c1ccccc1C(F)(F)F (stereo not drawn) [Example 21, N-(2,3-Dihydroxypropyl)-10-{[2-methoxy-2′-trifluoromethyl-[1,1′-biphenyl]-4-yl]carbonyl}-N-methyl-10,11-dihydro-5H-pyrrolo[2,1-c][1,4]benzodiazepine-3-carboxamide]
1390	Cc1cc(C(=O)N2Cc3ccc(C(=O)N(CCO)CCO)n3Cc3ccccc32)ccc1-c1ccccc1C(F)(F)F [Example 1, 10-[(2-Methyl-2′-trifluoromethyl-[1,1′-biphenyl]-4-yl)carbonyl]-10,11-dihydro-5H-pyrrolo[2,1-c][1,4]benzodiazepine-3-carboxylic acid bis-(2-hydroxy-ethyl)-amide]
1620	Cc1cc(C(=O)N2Cc3ccc(C(=O)N(C)C[C@@H]4OC(=O)O[C@H]4[C@H](O)[C@H]4COC(=O)O4)n3Cc3ccccc32)ccc1-c1ccccc1C(F)(F)F [Example 12, N-[((4S,5S)-5-{(R)-Hydroxy[(4R)-2-oxo-1,3-dioxolan-4-yl]methyl}-2-oxo-1,3-dioxolan-4-yl)methyl]-N-methyl-10-{[2-methyl-2′-(trifluoromethyl)[1,1′-biphenyl]-4-yl]carbonyl}-10,11-dihydro-5H-pyrrolo[2,1-c]benzodiazepine-3-carboxamide]
227	COc1ccccc1-c1ccc(C(=O)N2Cc3ccc(C(=O)N(C)C[C@H](O)[C@@H](O)[C@H](O)[C@H](O)CO)n3Cc3ccccc32)cc1C [Example 17, 10-[(2′-Methoxy-2-methyl-[1,1′-biphenyl]-4-yl)carbonyl]-10,11-dihydro-5H-pyrrolo[2,1-c][1,4]benzodiazepine-3-carboxylic acid methyl-[(2S,3R,4R, 5R)-2,3,4,5,6-pentahydroxy-hexyl)-amide]
140	Cc1ccc(-c2ccc(C(=O)N3Cc4ccc(C(=O)N(C)CC(O)CO)n4Cc4ccccc43)cc2)c2ccccc12 (stereo not drawn) [Example 26, 10-{[4-(4-Methyl-naphthalen-1-yl)phenyl]carbonyl}-10,11-dihydro-5H-pyrrolo[2,1-c][1,4]benzodiazepine-3-carboxylic acid (2,3-dihydroxy-propyl)-N-methylamide]
1370	Cc1cc(C(=O)N2Cc3ccc(C(=O)N(C)CC4COC(=O)O4)n3Cc3ccccc32)ccc1-c1ccccc1C(F)(F)F (stereo not drawn) [Example 11, 10-[(2-Methyl-2′-trifluoromethyl-[1,1′-biphenyl]-4-yl)carbonyl]-10,11-dihydro-5H-pyrrolo[2,1-c][1,4]benzodiazepine-3-carboxylic acid methyl-[(2-oxo-[1,3]dioxolan-4-yl)methyl]-amide]
3100	COc1cc(-c2ccccc2C(F)(F)F)c(Cl)cc1C(=O)N1Cc2ccc(C(=O)N(C)C[C@H](O)[C@@H](O)[C@H](O)[C@H](O)CO)n2Cc2ccccc21 [Example 20, 10-{[6-Chloro-3-methoxy-2′-trifluoromethyl-[1,1′-biphenyl]-4-yl]carbonyl}-N-methyl-N-[(2S,3R,4R,5R)-2,3,4,5,6-pentahydroxyhexyl]-10,11-dihydro-5H-pyrrolo[2,1-c][1,4]benzodiazepine-3-carboxamide]
144	COc1ccccc1-c1ccc(C(=O)N2Cc3ccc(C(=O)N(C)CC(O)CO)n3Cc3ccccc32)cc1C (stereo not drawn) [Example 14, 10-[(2′-Methoxy-2-methyl-[1,1′-biphenyl]-4-yl)carbonyl]-10,11-dihydro-5H-pyrrolo[2,1-c][1,4]benzodiazepine-3-carboxylic acid (2,3-dihydroxy-propyl)-methyl-amide]

— patent publication US6900200B2, “Tricyclic hydroxy carboxamides and derivatives thereof tocolytic oxytocin receptor antagonists” (Wyeth, priority 2001, dated 2005)
